Assay results published in ChEMBL document CHEMBL1201862, “PubChem BioAssay data set” (2004).
Calls of active or inactive are those of the source.

Assays:
[1] = control 3'UTR Renilla luciferase suppression, dose response, counter-screen for Shn3 inhibitor project, cell-based, Clone20-Shn3RL, cherry-picked (AID 624133); type: functional
[2] = Shn3 3'UTR reporter inhibitors, dose response, cell-based, Clone20 osteoblasts, firefly luciferase, cherry-picked (AID 624132); type: functional;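 also: firefly luciferase luminescence from reporter carrying the Shn3 3'UTR in osteoblasts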
H9c2 = test: cells; type: functional, cell-based; settings: Rattus norvegicus, H9c2, Myocardium;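 also: confirmatory concentration-response retest of ultra-high-throughput screening hits for modulation of myocardial damage; cell death induced by hydrogen peroxide oxidative stress; compound pretreatment for 60 min then peroxide exposure for 2 h; potency is for protecting the cells against peroxide damage rather than for killing them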
[3] = HepG2 cell cytotoxicity, dose response, cytotoxicity control for Shn3 inhibitor project, CellTiter-Glo, cherry-picked (AID 624134); type: functional, cell-based
A-375 = test: A375 melanoma cell viability reduction, dose response, counter-screen for MITF modulator project, cherry-pick samples, set 2 (AID 540335); type: functional, cell-based; settings: Homo sapiens
[4] = target: T1, Ubiquitin-conjugating enzyme E2 N (Homo sapiens, UniProt P61088); type: functional;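 also: Dose-response confirmation in a TR-FRET assay detecting UBC13-driven polyubiquitin chain formation, inhibition measured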
T1 sequence (P61088 whole entry): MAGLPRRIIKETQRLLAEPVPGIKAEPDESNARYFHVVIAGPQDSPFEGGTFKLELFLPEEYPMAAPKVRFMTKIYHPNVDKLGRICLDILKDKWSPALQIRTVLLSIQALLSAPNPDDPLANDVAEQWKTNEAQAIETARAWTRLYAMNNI

[5] = target: T2, Microphthalmia-associated transcription factor (Homo sapiens, UniProt O75030); test: TRPM1 promoter luciferase signal decrease, dose response, MITF inhibitor project, cell-based, SK-MEL-5, cherry-picked, set 3 (AID 493073); type: functional
T2 sequence (O75030 whole entry): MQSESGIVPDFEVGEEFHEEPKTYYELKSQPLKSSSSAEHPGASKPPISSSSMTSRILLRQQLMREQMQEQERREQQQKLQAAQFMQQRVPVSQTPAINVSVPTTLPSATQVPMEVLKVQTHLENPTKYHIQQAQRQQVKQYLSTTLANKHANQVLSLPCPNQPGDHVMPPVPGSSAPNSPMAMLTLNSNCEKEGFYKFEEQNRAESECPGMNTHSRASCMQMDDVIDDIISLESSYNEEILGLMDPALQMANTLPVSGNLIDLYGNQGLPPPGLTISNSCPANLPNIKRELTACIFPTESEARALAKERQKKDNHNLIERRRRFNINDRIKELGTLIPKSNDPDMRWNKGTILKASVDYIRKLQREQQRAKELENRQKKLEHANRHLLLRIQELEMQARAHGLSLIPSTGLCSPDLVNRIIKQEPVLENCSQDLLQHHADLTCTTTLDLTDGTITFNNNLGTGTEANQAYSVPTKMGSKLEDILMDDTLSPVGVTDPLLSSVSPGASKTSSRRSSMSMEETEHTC

[6] = target: Dual specificity tyrosine-phosphorylation-regulated kinase 1A (Rattus norvegicus, UniProt Q63470); type: biochemical, Homo sapiens
[7] = target: T3, RNA-binding protein pos-1 (Caenorhabditis elegans, UniProt G5EF15); test: inhibitors of POS-1/mex-3 RNA binding, dose response, biochemical, fluorescence polarization (AID 1964);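 also: purified POS-1 fused to maltose binding protein made in E. coli; potency of compounds blocking POS-1 binding to fluorescent RNA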
T3 sequence (G5EF15 whole entry): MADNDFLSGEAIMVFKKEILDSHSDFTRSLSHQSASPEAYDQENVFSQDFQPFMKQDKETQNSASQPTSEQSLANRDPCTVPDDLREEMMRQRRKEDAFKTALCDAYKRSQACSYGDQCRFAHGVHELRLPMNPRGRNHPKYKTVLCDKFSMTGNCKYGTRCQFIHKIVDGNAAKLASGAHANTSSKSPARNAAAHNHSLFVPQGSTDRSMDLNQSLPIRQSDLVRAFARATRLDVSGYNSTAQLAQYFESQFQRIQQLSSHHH

[8] = target: T4, Zinc finger protein mex-5 (Caenorhabditis elegans, UniProt Q9XUB2); test: MEX-5/TCR-2 RNA interaction inhibitors, dose response, biochemical, C. elegans, fluorescence polarization (AID 1960)
T4 sequence (Q9XUB2 whole entry): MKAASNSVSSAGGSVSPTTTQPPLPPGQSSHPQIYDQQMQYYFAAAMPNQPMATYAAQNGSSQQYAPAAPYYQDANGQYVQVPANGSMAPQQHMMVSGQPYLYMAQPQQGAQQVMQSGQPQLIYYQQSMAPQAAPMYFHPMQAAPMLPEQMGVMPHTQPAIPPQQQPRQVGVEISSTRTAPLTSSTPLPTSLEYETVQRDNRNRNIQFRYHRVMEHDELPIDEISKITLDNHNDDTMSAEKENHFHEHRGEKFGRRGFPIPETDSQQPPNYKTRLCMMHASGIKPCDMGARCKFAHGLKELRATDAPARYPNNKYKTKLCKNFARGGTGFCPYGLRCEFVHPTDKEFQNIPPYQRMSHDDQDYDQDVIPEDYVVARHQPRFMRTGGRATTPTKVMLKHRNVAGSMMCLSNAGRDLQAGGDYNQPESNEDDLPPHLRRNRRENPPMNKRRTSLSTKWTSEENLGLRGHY

Keap1/Nrf2 = Keap1/Nrf2 (Homo sapiens, UniProt Q14145); test: Keap1-Nrf2 protein-protein interaction inhibitors, dose response, biochemical, fluorescence polarization, cherry-picked samples (AID 588683)
Chain of Keap1/Nrf2 (Q16236 whole entry): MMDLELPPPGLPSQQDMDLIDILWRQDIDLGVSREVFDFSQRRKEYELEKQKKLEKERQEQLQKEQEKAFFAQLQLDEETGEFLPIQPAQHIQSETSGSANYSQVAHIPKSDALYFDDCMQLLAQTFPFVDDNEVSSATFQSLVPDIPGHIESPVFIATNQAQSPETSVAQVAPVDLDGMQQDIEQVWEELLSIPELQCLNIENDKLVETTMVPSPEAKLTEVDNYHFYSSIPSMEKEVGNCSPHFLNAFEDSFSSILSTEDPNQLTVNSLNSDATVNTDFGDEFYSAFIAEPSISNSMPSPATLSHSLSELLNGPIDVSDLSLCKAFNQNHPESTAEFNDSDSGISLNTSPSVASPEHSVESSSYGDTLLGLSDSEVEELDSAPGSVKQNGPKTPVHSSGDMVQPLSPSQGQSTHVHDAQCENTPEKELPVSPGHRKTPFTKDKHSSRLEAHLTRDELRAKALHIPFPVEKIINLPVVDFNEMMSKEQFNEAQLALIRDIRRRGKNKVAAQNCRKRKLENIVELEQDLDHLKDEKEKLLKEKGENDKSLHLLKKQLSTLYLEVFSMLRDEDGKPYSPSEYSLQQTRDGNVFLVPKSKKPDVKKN
Chain of Keap1/Nrf2 (Q14145 whole entry): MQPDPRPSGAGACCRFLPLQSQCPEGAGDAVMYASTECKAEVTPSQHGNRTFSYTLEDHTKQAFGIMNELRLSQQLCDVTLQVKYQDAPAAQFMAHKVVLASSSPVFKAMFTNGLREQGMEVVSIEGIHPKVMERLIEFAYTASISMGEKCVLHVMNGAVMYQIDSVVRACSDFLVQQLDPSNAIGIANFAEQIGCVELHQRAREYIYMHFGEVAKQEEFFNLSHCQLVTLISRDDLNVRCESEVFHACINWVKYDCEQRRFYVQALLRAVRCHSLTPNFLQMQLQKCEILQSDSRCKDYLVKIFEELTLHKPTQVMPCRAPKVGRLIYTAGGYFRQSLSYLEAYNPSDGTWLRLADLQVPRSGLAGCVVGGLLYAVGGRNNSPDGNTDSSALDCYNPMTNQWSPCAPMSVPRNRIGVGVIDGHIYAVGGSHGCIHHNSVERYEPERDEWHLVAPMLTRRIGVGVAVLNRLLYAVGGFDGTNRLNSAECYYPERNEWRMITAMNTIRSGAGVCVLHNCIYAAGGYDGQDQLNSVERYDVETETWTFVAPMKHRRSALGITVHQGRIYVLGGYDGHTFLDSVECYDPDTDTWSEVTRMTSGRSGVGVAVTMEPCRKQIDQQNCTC

Cytochrome P450 2D6 = Cytochrome P450 2D6 (Homo sapiens, UniProt P10635);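 also: CYP2D6 member of a cytochrome P450 panel assay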
Chain of Cytochrome P450 2D6 (P10635 whole entry): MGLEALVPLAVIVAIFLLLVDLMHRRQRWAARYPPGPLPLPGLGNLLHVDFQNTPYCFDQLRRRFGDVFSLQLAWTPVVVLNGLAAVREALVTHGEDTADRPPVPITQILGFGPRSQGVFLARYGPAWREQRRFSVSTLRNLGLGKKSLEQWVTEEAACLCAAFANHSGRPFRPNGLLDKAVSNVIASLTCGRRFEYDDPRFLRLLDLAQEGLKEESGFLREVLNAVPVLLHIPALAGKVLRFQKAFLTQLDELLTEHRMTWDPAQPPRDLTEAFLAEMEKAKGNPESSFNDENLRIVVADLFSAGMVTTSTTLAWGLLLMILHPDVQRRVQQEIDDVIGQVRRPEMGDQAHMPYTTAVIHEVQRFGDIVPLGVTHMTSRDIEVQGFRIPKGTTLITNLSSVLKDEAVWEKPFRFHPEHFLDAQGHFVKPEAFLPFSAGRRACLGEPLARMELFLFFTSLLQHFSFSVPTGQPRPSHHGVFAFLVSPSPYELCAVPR

[9] = target: T5, Heat shock factor protein 1 (Mus musculus, UniProt P38532); test: inhibition of MG132-induced HSE-luciferase signal, confirmation, cell-based, NIH3T3, luminescence, dose retest (AID 2382); type: functional;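 also: NIH3T3 fibroblasts with HSF1-driven luciferase reporter stressed by proteasome inhibitor MG132; luminescence from HSF1-driven luciferase expression after 8 hours of MG132 stress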
T5 sequence (P38532 whole entry): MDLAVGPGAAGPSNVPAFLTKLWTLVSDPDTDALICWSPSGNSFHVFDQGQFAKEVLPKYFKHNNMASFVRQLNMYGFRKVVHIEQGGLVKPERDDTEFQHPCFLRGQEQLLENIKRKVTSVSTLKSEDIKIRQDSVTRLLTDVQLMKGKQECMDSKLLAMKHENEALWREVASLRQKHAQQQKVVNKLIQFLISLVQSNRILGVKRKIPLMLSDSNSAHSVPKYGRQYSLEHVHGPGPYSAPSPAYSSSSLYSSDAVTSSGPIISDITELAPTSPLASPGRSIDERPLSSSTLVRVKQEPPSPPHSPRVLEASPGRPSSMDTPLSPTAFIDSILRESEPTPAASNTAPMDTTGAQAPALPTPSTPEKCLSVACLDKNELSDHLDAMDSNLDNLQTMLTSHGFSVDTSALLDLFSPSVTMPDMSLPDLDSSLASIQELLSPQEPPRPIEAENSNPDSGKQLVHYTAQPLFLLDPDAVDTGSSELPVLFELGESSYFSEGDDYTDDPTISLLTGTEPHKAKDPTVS

INS1 = test: beta cell apoptosis inhibitors, cytokine rescue, dose response, luminescence, retest (AID 449756); type: functional, cell-based; settings: Rattus norvegicus;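 also: cell death triggered by IL-1 beta plus TNF-alpha plus IFN-gamma mixture; protective hits raise ATP signal compared with cytokine alone wells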
[10] = insulin promoter down-regulators in MIN6 cells, imaging, high-content screening, mouse beta cells (AID 1628); type: functional
[11] = cytotoxicity in MIN6 insulinoma cells, dose response, cytotoxicity control, cell-based, mouse insulinoma (AID 2122); type: functional;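 also: confirmatory high-throughput counterscreen run to flag cytotoxic compounds; mouse MIN-6 beta cells carrying an insulin promoter eGFP reporter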

CC(Oc1cccc(Br)c1)C(=O)NNC(=O)c1ccccn1 (stereo not drawn)
AC50 [1]: 3.19 µM (active)
AC50 [2]: 3.36 µM (active)
IC50 (H9c2): > 79 µM (inactive)
AC50 [3]: 49.4 µM (active)
AC50 (A-375): 41.2 µM (active)
IC50 [4]: > 20 µM (inactive)
AC50 [5]: 7.18 µM (active)

O=C(Cc1c(F)cccc1Cl)Nc1nc2ccccc2s1
AC50 [6]: 7.77 µM (active)

CCCCOc1ccc(/C=C2/Sc3ccccc3C2=O)cc1
EC50 [7]: 158 µM (inconclusive)
EC50 [8]: 177 µM (inconclusive)
AC50 (Keap1/Nrf2): > 52 µM (inactive)

COc1cc(N2CN=c3s/c(=C\c4ccccn4)c(=O)n3C2)cc(OC)c1OC
AC50 [6]: 3.08 µM (active)

O=C(O)c1nn(-c2ccccc2-c2nnc(O)nc2O)c(=O)[nH]c1=O
AC50 (Cytochrome P450 2D6): inconclusive

Cc1ccc(Cn2c(=N)n(CC(=O)c3ccccc3)c3ccccc32)cc1
EC50 [9]: > 195 µM (not active)
AC50 (INS1): 7.43 µM (active)
IC50 [10]: 1.8 µM (active)
IC50 [11]: 1.86 µM (active)

c1ccc(C2OCC3(CO2)COC(c2ccccc2)OC3)cc1 (stereo not drawn)
AC50 (Cytochrome P450 2D6): inconclusive
